According to patent publication US20030118671A1, “Formulation containing peanut leaf extract and its preparation” (priority 1999, published 2003):

Tests used:
mice = conditions: mouse, in vivo; cited from earlier work
[1] = system: spleen, thymus and lymph node; test: Immune organs weight assay; assay type: in vivo, Kunming mice; conditions: mice, day 8; leaf extract 84.8 g/1 kg orally 7 days; cortisone acetate 50 mg/1 kg i.m. 3 times
Source text: Organ weights of Spleen, thymus and lymph node in animals are increased by most of the immunopotentiating agents, but decreased by immunosuppressive agents. So the assay was used to investigate the effect of the preparation containing leaf extract of A. hypogaea on immunological function.
Animals: male and female (1:1) Kunming mice (provided by Shanghai Bioproduct Institute) were used.
Drugs: leaf extract of A. hypogaea, provided by Shanghai Zhoaxiang Chinese Medicinal Herbs Factory. Injection of cortisone acetate was provided by Shanghai Ninth Pharmaceutical Factory.
Methods: The animals were divided into groups at random after weighting. Mice were administered with 84.8 g/1 kg body weight diluted leaf extract of A. hypogaea (in terms of crude drugs) orally once per day for 7 days. 50 mg/1 kg cortisone acetate was injected intramuscularly (totally 3 times), on 2, 4, 6 days after the administration of leaf extract of A. hypogaea. 0.2 ml/10 g body weight physiological saline was administrated orally in control group, once per day for 7 days. Animals were sacrificed on the day 8 by bleeding from orbit vein. Then, spleen, thymus and lymph node (jaw, axillary fossa, groin) were taken out and weighed immediately. Each organic weight was shown as mg/10 g body weight.

mononuclear macrophage = test: Carbon particulate clearance test; assay type: in vivo; conditions: mice, day 8 after seven days of drug; the values are: carbon clearance K value
Source text: This method was used to observe the phagocytosis of mononuclear macrophage. Immunopotentiators can activate the macrophage of mice, and enhance the phagocytosis thereof. In contrast, immunosuppressants suppress these effects. Therefore, K values were increased or decreased by these two kinds of drugs, respectively
Animals and drugs were same to those used above.
Methods: After oral administration of drugs or physiological saline, or intramuscular injection of […], for seven days, 0.05 mL/10 g body weight injected through tail vein in mice on day 8. 20 μL blood was acquired from orbit vein, in 1 and 5 minutes after injection, added to 0.1%Na2CO3 respectively, and shaken up. Optical density was detected with Model-72 spectrophotometer at λ=680 nm. K values were calculated. The results were statistically analyzed and p values were assessed by t-test.

[2] = system: peripheral blood of mouse; test: Peripheral blood rosette test (RFC method); assay type: in vivo, mice; conditions: 4 days after SRBC immunisation
Method: (§1) Peripheral blood of mouse, spleen cells rosette formation method. This method was used to observe the effect of drugs on antigen combining cell during the earlier stage of immune, which was used to screen immunopotentiator or immunosuppressant. 7.5 mg cyclophosphamide (manufactured by Shanghai Twelve Pharmaceutical Factory) per 1 kg of body weight of male mouse was injected intraperitoneally. According the recommended method for screening immune drugs disclosed by a person, each group was administrated and immured by injection sheep red blood cell (SRBC). After 4 days, peripheral blood and spleen cell suspension (approximately 9 million spleen cells per milliliter) were obtained from mice, and 1% SRBC and 0.1 mL inactivated calf blood serum were added thereto, intermixed and centrifuged under low-speed for 10 minutes. Then 1% toluidine blue was added in minor amount along the wall of the test tubes. Cell pellet was slightly dispersed by pipette. Well-mixed cell suspension was dropped to blood cell counting chamber and the number of rosette in 1 mm^3 was counted under a microscope. Once lymphocyte was surrounded by more than five SRBC, it was regarded as a rosette.

spleen cells = test: Spleen cell rosette test (RFC method); assay type: in vivo, mice; conditions: 4 days after SRBC immunisation
Method: as §1

C=CC(C)(O)CCC=C(C)C (stereo not shown) [Linalool]
sedative-hypnotic effect (literature) (mice): positive effects on the sedative-hypnotic

CC(=O)OCC(=O)[C@@]1(O)CC[C@H]2[C@@H]3CCC4=CC(=O)CC[C@]4(C)[C@H]3C(=O)C[C@@]21C [cortisone, cortisone acetate]
lymph node weight [1]: 0.12 ± 0.05 mg/10 g body weight | thymus weight [1]: 3.77 ± 0.83 mg/10 g body weight | weight of spleen [1]: 2.58 ± 1.00 mg/10 g body weight | carbon clearance K value (mononuclear macrophage): 0.00587 ± 0.0033

O=P1(N(CCCl)CCCl)NCCCO1 (stereo not shown) [cyclophosphamide]
rosette percent [2]: 15.93 ± 3.35 | rosette percent (spleen cells): 20.50 ± 4.29
